Results reported in patent US20250090513A1, “DOSING REGIMEN OF HIV CAPSID INHIBITOR” (Gilead Sciences, Inc., priority 2023, published 2025).

System: HIV-1
Assay: Trough LEN concentration associated with antiviral activity (inhibitory quotient-4)
Conditions: IQ4 threshold / efficacy target
Text: Lenacapavir (LEN) is currently approved for the treatment of multidrug-resistant HIV-1 infection in combination with other antiretrovirals for heavily treatment-experienced (HTE) individuals. […] Given the importance of oral loading doses in achieving and maintaining concentrations >IQ4, options to make up for missed oral loading doses were considered. A population-pharmacokinetic (PopPK) model was utilized to simulate various dosing scenarios to guide missed oral loading-dose recommendations for the HTE population.

## CC(C)(C#Cc1ccc(-c2ccc(Cl)c3c(NS(C)(=O)=O)nn(CC(F)(F)F)c23)c([C@H](Cc2cc(F)cc(F)c2)NC(=O)Cn2nc(C(F)(F)F)c3c2C(F)(F)[C@@H]2C[C@H]32)n1)S(C)(=O)=O [LEN, N-((S)-1-(3-(4-chloro-3-(methylsulfonamido)-1-(2,2,2-trifluoroethyl)-1H-indazol-7-yl)-6-(3-methyl-3-(methylsulfonyl)but-1-yn-1-yl)pyridin-2-yl)-2-(3,5-difluorophenyl)ethyl)-2-((3bS,4aR)-5,5-difluoro-3-(trifluoromethyl)-3b,4,4a,5-tetrahydro-1H-cyclopropa [3,4]cyclopenta [1,2-c]pyrazol-1-yl) acetamide]
  mean trough LEN concentration associated with high antiviral activity (inhibitory quotient-4 [IQ4]): 15.5 ng/mL
